The results in this text go back to patent EP4567031A1, “HPK1 INHIBITOR, PREPARATION METHOD THEREFOR, AND USE THEREOF” (Beijing Earthwise Technology Co., Ltd., priority 2022, dated 2024).

The subject of assay [1] is Phospho-SLP-76 (Ser376). The assay can be described thus: Phospho-SLP-76 (Ser376) HTRF assay in Jurkat E6-1 cells. Format: cell-based. The note with it: Homo sapiens, compound 4 hours, then anti-CD3 antibody 20 minutes, read-out: pSLP76, IC50. On the procedure:
A compound was dissolved in DMSO to 10 mM, and then diluted three-fold with DMSO to 10 dosages in a 96-well plate. Then, 3 µL of the diluted compound sample was transferred to a 96-well plate with 97 µL of cell culture medium, and the plate was shaken for 5 minutes. According to the experimental design diagram, 7.5 µL of the diluted compound sample was transferred to a cell plate. Final concentrations of the compound in this assay were 10000.00, 3333.33, 1111.11, 370.37, 123.46, 41.15, 13.72, 4.57, 1.52 and 0.51 nM.
In this assay, the density of Jurkat E6-1 cells was maintained between 3*10^5 to 3*10^6 cells/mL. The cell culture was replaced with fresh culture medium every 2 to 3 days (depending on the cell density).
30 µL of Jurkat E6-1 (300,000 cells) was added to a 96-well plate and incubated in a 37 °C incubator for 1 hour. Then, according to the experimental design diagram, compounds (6×, 7.5 µL) were added to treat the cells for 4 hours, respectively. After 4 hours, purified anti-human anti-CD3 antibodies (6×, 7.5 µL) were added to treat the cells for 20 minutes. After 20 minutes, 15 µL of cell lysis buffer (4×) was added, and the cells were lysed at 25 °C with shaking (250 rpm) for 1 hour. Then, according to the experimental design diagram, 16 µL of cell lysate was transferred to a 384-well plate using a pipette. After the transfer, 4 µL of antibody detection mixture was added. After being placed at room temperature overnight, the plate was read by EnVision multi-function microplate reader to read the FRET signal (the ratio of HTRF 665/615 was calculated from the readings at 665 nm and 615 nm).
The ratio of the signal at 665 nm to the signal at 615 nm was converted to the percentage of inhibition. Inhibition % = (maximum value - sample value) / (maximum value - minimum value)×100. The minimum value refers to the signal value of a well without anti-CD3 antibody stimulation during the treatment of cells, and the maximum value refers to the signal value of a well with anti-CD3 antibody stimulation but without the compound during the treatment of cells. IC50 values were calculated by XLFit (version 5.3.1.3) in excel. Equation: Y = Bottom + (Top-Bottom) / (1 + (IC50/X) ^ HillSlope). Table 4. Results of cellular activity of the compounds
A general note: TR-FRET usually uses a lanthanide donor and a delayed reading to cut background.

In assay [2] the test system is human Pan T cells. Kind of assay: Human Pan T cell IL-2 ELISA. Format: cell-based. The note with it: Homo sapiens, T-cell, 48 h, Anti-CD3 and Anti-CD28, supernatant IL-2 ELISA, read-out: IL-2 release, EC50. A digest of the protocol:
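Human Pan T cells (1×10^6 cells/ml) stimulated with plate-bound anti-CD3 plus anti-CD28 and treated 48 h with compound at 9 final concentrations, 39.063–10000 nM. Supernatant IL-2 by ELISA, expressed as fold over DMSO wells; EC50 from four-parameter logistic fit.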

Assay [3] addresses HPK1 (Homo sapiens, UniProt Q92918). The assay can be described thus: HPK1 HTRF kinase assay. Format: biochemical. The note with it: 1000 µM ATP; 50 nM HPK1; STK1 substrate; read-out: HPK1, IC50. On the procedure:
The reaction was initiated by adding 50 nM HPK1. After 120 minutes of reaction, the assay was terminated by adding 10 µL of Detection Mix.
The ratio of the signal at 665 nm to the signal at 615 nm was converted to the percentage of inhibition. Inhibition % = (maximum value - sample value) / (maximum value - minimum value)×100. The minimum value refers to the value measured in a well without enzyme but with DMSO and substrate, and the maximum value refers to the value measured in a well with DMSO, enzyme and substrate. IC50 values were calculated by XLFit (version 5.3.1.3) in Excel. Equation: Y = Bottom + (Top - Bottom) / (1 + (IC50/X) ^ HillSlope).

Chain of HPK1 (Q92918 whole entry, species assumed): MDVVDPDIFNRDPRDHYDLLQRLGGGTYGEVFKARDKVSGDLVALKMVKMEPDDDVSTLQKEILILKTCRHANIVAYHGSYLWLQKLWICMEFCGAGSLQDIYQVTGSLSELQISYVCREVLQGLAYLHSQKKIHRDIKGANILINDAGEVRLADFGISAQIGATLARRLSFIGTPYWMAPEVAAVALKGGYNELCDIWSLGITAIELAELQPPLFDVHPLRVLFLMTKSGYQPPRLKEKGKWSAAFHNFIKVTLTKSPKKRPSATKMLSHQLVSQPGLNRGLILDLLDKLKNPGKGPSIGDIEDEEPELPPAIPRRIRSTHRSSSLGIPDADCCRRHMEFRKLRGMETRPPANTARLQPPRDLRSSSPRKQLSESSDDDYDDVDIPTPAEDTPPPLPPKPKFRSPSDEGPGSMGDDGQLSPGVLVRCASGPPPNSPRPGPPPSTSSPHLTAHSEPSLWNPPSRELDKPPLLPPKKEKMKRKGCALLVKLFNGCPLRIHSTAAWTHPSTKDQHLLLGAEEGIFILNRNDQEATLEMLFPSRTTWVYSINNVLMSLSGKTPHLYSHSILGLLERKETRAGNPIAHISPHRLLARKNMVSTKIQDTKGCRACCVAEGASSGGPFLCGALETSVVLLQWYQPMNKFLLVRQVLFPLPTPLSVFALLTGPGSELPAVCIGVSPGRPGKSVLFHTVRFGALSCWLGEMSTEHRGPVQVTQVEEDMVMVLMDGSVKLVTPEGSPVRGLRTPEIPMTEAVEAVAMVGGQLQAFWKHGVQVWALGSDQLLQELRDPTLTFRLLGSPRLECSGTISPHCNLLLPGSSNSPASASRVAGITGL

For the molecule `CC1(C)c2cc(N3CCOCC3)ccc2Nc2c1cc(-c1cnn3cccnc13)c1cc[nH]c(=O)c21` [Example 4], the IC50 in assay [1] was 38.1 nM. Besides, the EC50 in assay [2] came out at 4.61 nM.
For `Cc1ccn2c(-c3cc4c(c5c(=O)[nH]ccc35)Nc3ccc(N5CCOC(C(C)(C)O)C5)cc3C4(C)C)cnc2c1F` (stereo not shown) [Example 6], in that order: 164 nM and 13 nM.
Take `Cc1ccc2c(-c3cc4c(c5c(=O)[nH]ccc35)Nc3ccc(N5CCOC(C(C)(C)O)C5)cc3C4(C)C)cnn2c1` (stereo not shown) [Example 7]: the IC50 in assay [1] is 487 nM.
As to `COc1cccc2c(-c3cc4c(c5c(=O)[nH]ccc35)Nc3ccc(N5CCOCC5)cc3C4(C)C)cnn12` [Example 8], the IC50 in assay [1] came out at 103 nM. Besides, the EC50 in assay [2] is 5.5 nM.
On to `Cc1ccn2c(-c3cc4c(c5c3CNC5=O)Nc3ccc(N5CCOC(C(C)(C)O)C5)cc3C4(C)C)cnc2c1F` (stereo not shown) [Example 9], for which the IC50 stood at 57.8 nM in assay [1] and 20.4 nM in assay [3]. For the same molecule, in assay [2], the EC50 turned out to be 3.09 nM.
On to `COc1cccn2c(-c3cc4c(c5c3CNC5=O)Nc3ccc(N5CCOCC5)cc3C4(C)C)cnc12` [Example 10], for which the IC50 in assay [1] came to 42.7 nM; in assay [3], 8.39 nM.
For `Cc1ccn2c(-c3cc4c(c5c3CNC5=O)Nc3ccc(N5CCOCC5)cc3C4(C)C)cnc2c1F` [Example 11], the IC50 stood at 73.3 nM in assay [1] and 7.38 nM in assay [3]. Also, the 50% effective concentration (EC50) in assay [2] is 13.8 nM.
For `CC1(C)c2cc(N3CCOCC3)ccc2Nc2c1cc(-c1cnc3cccnn13)c1c2C(=O)NC1` [Example 12], in that order: 25.9 nM, 6.99 nM and 6.67 nM.
Consider `COc1cccn2c(-c3cc4c(c5c3CCNC5=O)Nc3ccc(N5CCOCC5)cc3C4(C)C)cnc12` [Example 13], for which the IC50 in assay [1] turned out to be 24.4 nM.
On to `COc1cccn2c(-c3cc4c(c5c3CNC5=O)Nc3cnc(N5CCOCC5)cc3C4(C)C)cnc12` [Example 14], for which the IC50 in assay [1] was 197 nM; in assay [3], 30.3 nM. For the same molecule, the EC50 in assay [2] came to 49.1 nM.
With `COc1cccc2c(-c3nc4c(c5c3CCNC5=O)Nc3ccc(N5CCOCC5)cc3C4(C)C)cnn12` [Example 15], the IC50 in assay [1] was found to be 72.2 nM. In addition, in assay [2], the EC50 amounted to 3.95 nM.
For the molecule `CC1(C)c2cc(N3CCOCC3)ccc2Nc2c1cc(-c1cnn3cccnc13)c1c2C(=O)NC1` [Example 16], the results for the IC50 in assay [1] and in assay [3] were 31.6 nM and 2.85 nM, respectively. Besides, the EC50 in assay [2] was 6.81 nM.
For the molecule `CC1(C)c2cc(N3CCOCC3)ccc2Nc2c1cc(-c1cnn3c(C#N)cccc13)c1c2C(=O)NC1` [Example 17], the IC50 in assay [1] was 56.9 nM; in assay [3], 6.31 nM. The EC50 in assay [2] was found to be 3.72 nM.
`COc1cccc2c(-c3cc4c(c5c3CNC5=O)Nc3ncc(N5CCOCC5)cc3C4(C)C)cnn12` [Example 21]: the IC50 in assay [1] amounted to 37 nM. The EC50 in assay [2] stood at 8.32 nM.
For `Cn1ccn2c(-c3cc4c(c5c3CNC5=O)Nc3ccc(N5CCOCC5)cc3C4(C)C)cnc2c1=O` [Example 41], in that order: 13.5 nM and 6.09 nM.
On to `COc1nccn2c(-c3cc4c(c5c3CNC5=O)Nc3ccc(N5CCOCC5)cc3C4(C)C)cnc12` [Example 63], for which the IC50 in assay [3] turned out to be 5.48 nM. In assay [2], the EC50 is 4.98 nM.
For `CC1(C)c2cc(N3CCOCC3)ccc2Nc2c1cc(-c1cnc3c(F)cccn13)c1c2C(=O)NC1` [Example 64], in that order: 5.28 nM and 3.51 nM.
For `CC1CCn2c(-c3cc4c(c5c3CNC5=O)Nc3ccc(N5CCOCC5)cc3C4(C)C)cnc2C1` (stereo not shown) [Example 65], in that order: 8.59 nM and 28 nM.
On to `Cn1cccc(Nc2cc3c(c4c2CNC4=O)Nc2ccc(N4CCOCC4)cc2C3(C)C)c1=O` [Example 67], for which, in assay [3], the IC50 worked out at 3.93 nM. Also, in assay [2], the EC50 was found to be 14.4 nM.
For `Cn1c(-c2cc3c(c4c2CNC4=O)Nc2ccc(N4CCOCC4)cc2C3(C)C)cnc1C1CC1` [Example 68], in that order: 12 nM and 21.1 nM.
For the molecule `COC1CCCn2c(-c3cc4c(c5c3CNC5=O)Nc3ccc(N5CCOCC5)cc3C4(C)C)cnc21` (stereo not shown) [Example 69], in assay [3], the IC50 was determined as 6.86 nM. Besides, in assay [2], the EC50 is 11.4 nM.
For `CC1(C)c2cc(N3CCOCC3)ccc2Nc2c1cc(-c1cnn3c1CNCC3)c1c2C(=O)NC1` [Example 70], in that order: 12.7 nM and 23.4 nM.
For `CC1(C)c2cc(N3CCOCC3)ccc2Nc2c1cc(-c1nnc3n1CCCC3)c1c2C(=O)NC1` [Example 71], in that order: 11 nM and 68.6 nM.
For `CC1(C)c2cc(CN3CCN(CC4CC4)CC3)ccc2Nc2c1cc(-c1cnn3cccnc13)c1c2C(=O)NC1` [Example 72], in that order: 2.13 nM and 18.1 nM.
Consider `CC1(C)c2cc(N3CCOCC3)c(C(F)F)cc2Nc2c1cc(-c1cnn3cccnc13)c1c2C(=O)NC1` [Example 73], for which, in assay [3], the IC50 came to 7.87 nM. In assay [2], the EC50 amounted to 28.9 nM.
Take `CC1(C)c2cc(N3CCOCC3)ccc2Nc2c1cc(-c1cncc(OCC3COC3)c1)c1c2C(=O)NC1` [Example 74]: the IC50 in assay [3] worked out at 49.7 nM. In addition, the EC50 in assay [2] was found to be 100 nM.
For `COc1cccn2c(-c3cc4c(c5c3CNC5=O)Nc3ccc(N5CCOCC5)cc3C4(C)C)nnc12` [Example 75], in that order: 4.55 nM and 1.41 nM.
Turning to `COc1cncc2c(-c3cc4c(c5c3CNC5=O)Nc3ccc(N5CCOCC5)cc3C4(C)C)cnn12` [Example 76], the IC50 in assay [3] was found to be 8.73 nM. For the same molecule, the EC50 in assay [2] was 50.4 nM.
For `CC1(C)c2cc(N3CCOCC3)ccc2Nc2c1cc(-c1cnn3c1OCCC3)c1c2C(=O)NC1` [Example 77], in that order: 4.56 nM and 13.6 nM.
For `CN1CCn2c(-c3cc4c(c5c3CNC5=O)Nc3ccc(N5CCOCC5)cc3C4(C)C)cnc2C1` [Example 78], in that order: 35 nM and 75.5 nM.
For `CC1(C)c2cc(N3CCOCC3)ccc2Nc2c1cc(-c1cnc3n1CCOC3)c1c2C(=O)NC1` [Example 79], in that order: 6.36 nM and 19.5 nM.
For `CC1(C)c2cc(N3CCOCC3)ccc2Nc2c1cc(-n1cnc3c1CCCC3)c1c2C(=O)NC1` [Example 80], the IC50 in assay [3] was 9.18 nM. Moreover, in assay [2], the EC50 worked out at 86.6 nM.
In the case of `Cc1cc(-c2cc3c(c4c2CNC4=O)Nc2ccc(N4CCOCC4)cc2C3(C)C)cc(=O)[nH]1` [Example 81], the IC50 in assay [3] worked out at 6.31 nM. In addition, in assay [2], the concentration for a half-maximal effect (EC50) came to 35.8 nM.
For `CNc1cncc(-c2cc3c(c4c2CNC4=O)Nc2ccc(N4CCOCC4)cc2C3(C)C)c1` [Example 82], in that order: 6.62 nM and 27 nM.
For `CC1(C)c2cc(C3CCNCC3)ccc2Nc2c1cc(-c1cnn3cccnc13)c1c2C(=O)NC1` [Example 83], in that order: 5.8 nM and 17.4 nM.
Consider `CN1CCn2c(-c3cc4c(c5c3CNC5=O)Nc3ccc(N5CCOCC5)cc3C4(C)C)cnc2C1=O` [Example 84], for which the IC50 in assay [3] came out at 8.63 nM. In addition, the EC50 in assay [2] is 65.9 nM.
For `CC1(C)c2cc(N3CCOCC3)ccc2Nc2c1cc(-c1cnc3n1CCC3)c1c2C(=O)NC1` [Example 86], in that order: 7.95 nM and 11.5 nM.
For `Cc1ncc(-c2cc3c(c4c2CNC4=O)Nc2ccc(N4CCOCC4)cc2C3(C)C)n1C` [Example 87], in that order: 7.88 nM and 8.97 nM.
`CC1(C)c2cc(NC(=O)COCCO)ccc2Nc2c1cc(-c1cnn3cccnc13)c1c2C(=O)NC1` [Example 92]: in assay [3], the IC50 is 7.64 nM. In addition, the EC50 in assay [2] worked out at 68.2 nM.

The IC50 is the concentration at which inhibition is half-maximal. One may read the EC50 as the concentration needed to bring the measured effect to its halfway point.
